This passage reports viability results from paper PMC12040169 (PLOS Biology, 2025).

The data set in a line: in vitro. Conditions: human, hela cells, % viability.

In general, viability refers to a read-out of living cells in per cent, often relative to untreated cells.

Regarding `COc1ccc(NC(=O)CSc2nnc(-c3ccncc3)n2-c2ccc(C)cc2)cc1Cl` [CBK266187], the viability at 28.5 h, 10 µM came to 98.3%. On the same count and under the same terms, as for `CCc1nc2c(OCCC3CCCCC3)cccn2c1N(C)C(=O)CC(C)C` [CBK147671], the figure is 94.8%; as for `O=C(Cc1ccccc1[N+](=O)[O-])NCCCN1CCOCC1` [CBK265520], 92%; as for `N#Cc1ccc(COc2ccccc2)cc1` [CBK002738], 96.4%.

For `COCCNc1nc(-c2cc(C(C)C)ccc2OC)ccc1C(=O)NCCNC(C)=O` [CBK105985], the viability at 28.5 h, 10 µM came to 96.6%. Regarding `Nc1ncc(-c2cccnc2)nc1NCc1ccccc1` [CBK063349], the viability at 28.5 h, 10 µM amounted to 102%.

Turning to `COC(=O)CCc1ccc(S(=O)(=O)N2CCCN(Cc3c[nH]c4ccc(Cl)cc34)CC2)cc1` [CBK063000], the viability at 28.5 h, 10 µM was found to be 99.2%. The same measure, in the same setting: for `CC(C)OCC1CN(c2cc(CO)c(F)cn2)CCO1` (stereo not drawn) [CBK304755] the value was 89.7%; for `CSc1nc(N)cc(N2CCN(C(=O)OC(C)(C)C)CC2)n1` [CBK003458], 111%. Still for that read-out and setting: for `CCNC(=O)N1CC2(CCN(CCn3cccc3)CC2)c2ccccc21` [CBK143945] the value was 93%; for `Cc1ccc(C(=O)NC(C)c2nc3ccccc3n2Cc2ccc(C(=O)O)o2)cc1` (stereo not drawn) [CBK295159], 107%; for `CSc1ccc(-c2cn3ccnc3c(NCCc3ccncc3)n2)cc1` [CBK066479], 102%. Take `CCN1C(=O)COC[C@@H]1[C@H](O)c1ccc(NC(=O)C2CCC2)cc1` [CBK289686]: the viability at 28.5 h, 10 µM came to 85.7%.

Consider `COc1ccc(C)cc1NC(=O)c1cnc2n(c1=O)CCS2` [CBK287383], for which the viability at 28.5 h, 10 µM turned out to be 108%. On the same count and under the same terms, for `NC(=O)CN1CCC2(CC1)CN(CC(N)=O)c1ccccc12` [CBK126789] the value was 100%; for `COC(=O)CCc1ccc(Oc2ncc(C(F)(F)F)cc2Cl)cc1` [CBK161628], 111%; for `COc1cccc(-c2cc(C(=O)NCCCN3CCOCC3)c3ccccc3n2)c1` [CBK262630], 91.7%.

As for `Cc1cc(Cl)c(S(=O)(=O)Nc2ccon2)cc1OCC(=O)NC1CCCCC1` [CBK266785], the viability at 28.5 h, 10 µM was 93.5%. The same measure, in the same setting: as for `O=C1NC2=C(C(=O)N(CC3CCCO3)C2)C(c2ccc(F)c(F)c2)N1` (stereo not drawn) [CBK282271], the figure is 98%; as for `Cc1nn(C)cc1S(=O)(=O)N1CCc2cc(Cl)ccc21` [CBK282802], 107%; as for `OCCc1ccc(Nc2cc(-c3ccco3)ncn2)cc1` [CBK090771], 100%.

On to `O=C1CC(SCc2nc3ccccc3[nH]2)C(=O)N1c1cccc(Cl)c1` (stereo not drawn) [CBK266731], for which the viability at 28.5 h, 10 µM was determined as 94.5%. The same measure, in the same setting: for `COc1ccccc1OCc1ccc(C(=O)N2CCN(c3cccc(C(F)(F)F)c3)CC2)o1` [CBK074417] the value was 62.7%; for `CS(=O)(=O)c1ccc(-c2c[nH]c([C@@H]3COCCN3Cc3c[nH]c4ccccc34)n2)cc1` [CBK289321], 92%. On the same count and under the same terms, as for `COC(=O)[C@H]1CN(C(=O)c2cn(C)nc2C)C[C@@H]1c1ccc(F)cc1` [CBK283720], the figure is 96.6%; as for `CC1(C)CCN(Cc2ccccc2)C1CC#N` (stereo not drawn) [CBK006978C], 102%. On the same count and under the same terms, for `CC1CN(c2cc(CO)c(F)cn2)CC2(CCOCC2)O1` (stereo not drawn) [CBK304773] the value was 91.9%; for `N#CCCCN1CCN(c2nccnc2OCc2ccc(Cl)c(Cl)c2)CC1` [CBK083086T], 94%. For the molecule `Cc1ncc([N+](=O)[O-])n1CC(=O)Nc1ccccc1F` [CBK269335], the viability at 28.5 h, 10 µM was determined as 86.4%.

As to `Cc1nc(C)c(C(=O)N2CCN(Cc3ccccc3)CC2)s1` [CBK200177], the viability at 28.5 h, 10 µM amounted to 101%. On the same count and under the same terms, as for `O=C1C2C3C=CC(C3)C2C(=O)N1CCN1CCNCC1` (stereo not drawn) [CBK278185C], the figure is 92.3%. Same read-out and setting: as for `Cc1nnc(SCc2cc(=O)[nH]c(N3CCN(c4ccccc4F)CC3)n2)s1` [CBK270017], the figure is 97.8%; as for `O=C(CC(C(=O)O)c1c[nH]c2ccccc12)c1ccc(Cl)cc1` (stereo not drawn) [CBK286620], 86.7%; as for `S=C(NCCCN1CCOCC1)Nc1ccccc1Cl` [CBK264599], 100%.

For `COCc1nc(CN2CCNC(=O)C2c2ccccc2C(F)(F)F)no1` (stereo not drawn) [CBK304157], the viability at 28.5 h, 10 µM worked out at 87.2%. Still for that read-out and setting: for `Nn1c(SCc2ccc(Br)cc2)nnc1-c1ccccn1` [CBK267552] the value was 89.5%. For `COC(=O)c1cccc(COC(=O)c2ccc3nc(C)c(C)nc3c2)c1` [CBK269641], the viability at 28.5 h, 10 µM came out at 95.2%. For `COc1ccc(NC(=O)CSc2nc(O)cc(-c3ccccc3)n2)cc1OC` [CBK263657], the viability at 28.5 h, 10 µM was found to be 96.1%. Take `FC(F)(F)c1ccc(COc2cccc(-c3ccc4c(c3)COC3(CCNCC3)O4)c2)cc1` [CBK105868]: the viability at 28.5 h, 10 µM (bulk resorufin, single well) turned out to be 83.7%.

For the molecule `O=C(Cc1cc(F)c(F)c(F)c1)NCCc1c[nH]c2ccc(Cl)cc12` [CBK159768], the viability at 28.5 h, 10 µM came out at 112%. In the case of `O=C(NC(=O)C1CCNCC1)Nc1ccccc1` [CBK034794], the viability at 28.5 h, 10 µM was 93.8%.

On to `COc1ccc(C2NCCc3c2[nH]c2ccccc32)cc1CSc1nc2ccccc2s1` (stereo not drawn) [CBK264303C], for which the viability at 28.5 h, 10 µM came to 96.8%. On the same count and under the same terms, as for `CCN(CC)CCNC(=O)c1ccc(/C=N/O)nc1` [CBK288375], the figure is 100%; as for `O=C(c1cncnc1)N1CCN(c2ncccn2)CC1` [CBK144515], 88%; as for `CC1CCCN(c2ccc(NC(=O)c3cccs3)cc2[N+](=O)[O-])C1` (stereo not drawn) [CBK266402], 102%. The same measure, in the same setting: for `CC(C)C(=O)Nc1ccc(-c2ccccc2)c2ccccc12` [CBK083731] the value was 101%; for `COc1ccc(C2(CN3CCC(NC(=O)C4CC4)CC3)CC2)cc1` [CBK285358], 101%; for `FC(F)(F)c1nnc(-c2cc3sccc3s2)o1` [CBK006303], 96.4%. Still for that read-out and setting: for `CC(=O)Nc1cccc(CN2CCCC(CO)C2)c1` (stereo not drawn) [CBK305527] the value was 91.9%; for `Cc1cc2ccnc(Cl)c2n1CC1(O)CC2CCC(C1)N2` (stereo not drawn) [CBK284980], 95%. For the molecule `O=c1c([N+](=O)[O-])c(O)c2ccccc2n1Cc1ccccc1` [CBK291182], the viability at 28.5 h, 10 µM was determined as 94.8%. As for `CC(C)Nc1nccnc1OCc1ccc(F)cc1` [CBK115644], the viability at 28.5 h, 10 µM came out at 113%. Same read-out and setting: for `Cc1cc(Cl)ccc1CNC(=O)c1ccccc1Nc1cccc(C(F)(F)F)c1` [CBK149544] the value was 97.3%. On the same count and under the same terms, for `Clc1ccc(COc2nccnc2OCCOc2ccccc2)cc1Cl` [CBK161853] the value was 92.5%. On the same count and under the same terms, as for `O=C(Nc1ccccc1C(=O)NCCCc1nc2ccccc2[nH]1)c1cccs1` [CBK296641], the figure is 107%; as for `Cc1cc(Oc2ccccc2)nc(NCc2ccccc2)n1` [CBK003557], 99.1%; as for `CCCCNc1cc(N(C)Cc2cnn(C)c2)nc(N)n1` [CBK304167], 62.6%. With `Cc1nn(C)cc1-c1cncn1CC(C)Oc1ccccc1Cl` (stereo not drawn) [CBK281739], the viability at 28.5 h, 10 µM was 83.8%.

Take `O=C(CC(CN1CCN(Cc2ccccn2)CC1)C(=O)O)NCc1ccccc1` (stereo not drawn) [CBK286865]: the viability at 28.5 h, 10 µM is 81.2%. On the same count and under the same terms, as for `Cc1cc(NC(=O)NC2CCSc3ccccc32)no1` (stereo not drawn) [CBK259296], the figure is 74.8%.

`FC(F)(F)c1nc2ccccc2nc1OCCc1c[nH]c2ccccc12` [CBK115843]: the viability at 28.5 h, 10 µM came to 93.2%. For `Cc1ccc(CNC(=O)CN(c2cccc(C(F)(F)F)c2)S(=O)(=O)c2ccc(C)cc2)cc1` [CBK263997], the viability at 28.5 h, 10 µM was determined as 89.3%. Take `CCOC(=O)c1sc(-c2ccc3c(c2)OCO3)nc1O` [CBK078565]: the viability at 28.5 h, 10 µM is 97.2%. Same read-out and setting: for `Cc1ccc2cc(CN(Cc3ccccc3)C(=O)NCc3c(Cl)cccc3Cl)c(=O)[nH]c2c1C` [CBK132088] the value was 81.8%; for `Cn1cccc1C(=O)N[C@H]1CCN2C(=O)N(c3ccc(OC(F)(F)F)cc3)C(=O)[C@@H]2C1` [CBK289548], 94.7%; for `Cc1ccc2oc(-c3ccc(O)cc3)nc2c1` [CBK093878], 96.2%.

Take `COc1c(Cl)cc(Cl)cc1CNCCCN1CCOCC1` [CBK278165C]: the viability at 28.5 h, 10 µM worked out at 88.8%. For `COCCc1nc(C2CCN(C)CC2)n(Cc2ccccc2C)n1` [CBK307449], the viability at 28.5 h, 10 µM worked out at 115%. On to `Cc1ccc(C(CNCc2cn(C)nc2-c2cccnc2)N(C)C)cc1` (stereo not drawn) [CBK305343], for which the viability at 28.5 h, 10 µM is 109%. Still for that read-out and setting: for `Nc1nn(S(=O)(=O)c2cccc3nsnc23)cc1-c1ccc(Br)cc1` [CBK268975] the value was 107%; for `COCCn1cc(C(=O)N2CCOC3CCCCC32)c2ccccc21` (stereo not drawn) [CBK305288], 113%; for `CSc1nnc(-c2ccccc2O)n1CCc1ccccc1` [CBK076668], 96.8%. Regarding `Cc1nc2n(c1C)CCN(c1ccc3nnc(C(F)(F)F)n3n1)C2` [CBK305815], the viability at 28.5 h, 10 µM worked out at 102%. Regarding `O=C(O)C1CCCCC1C(=O)NCCN1CCCCC1` (stereo not drawn) [CBK287031], the viability at 28.5 h, 10 µM was found to be 91.4%. For the molecule `NC(=O)C1(Cc2cccc(-c3cccs3)c2)CCN(C(=O)CCc2ccccc2)CC1` [CBK285782], the viability at 28.5 h, 10 µM was 91.3%. Still for that read-out and setting: for `Clc1ccc(COc2ccccc2OCc2ccccc2)s1` [CBK002766] the value was 87.7%. Same read-out and setting: as for `O=c1[nH]cnc2c1ncn2[C@@H]1O[C@H](CO)[C@H](O)C1O` (stereo partly drawn) [CBK201186], the figure is 98.3%; as for `CCS(=O)(=O)N1CC2CCCC(O)(c3cccc(F)c3)C2C1` (stereo not drawn) [CBK283108], 99.3%. Consider `COc1cc(CNC23CC4CC(CC(C4)C2)C3)c(Cl)cc1OCC(=O)O` [CBK269567], for which the viability at 28.5 h, 10 µM was 87.6%. The same measure, in the same setting: for `CCC(CC)C(=O)N(C)c1c(C)nc2ccc(C(=O)NCCc3c[nH]c4ccccc34)cn12` [CBK146495] the value was 85.5%; for `COc1ccc(S(=O)(=O)NC[C@H]2C[C@@H]3CC[N@]2C[C@@H]3CN2CCCCC2)cc1` [CBK288764], 98.9%.
